Where two headings read alike, the source gives them in different places.
Assays:
[1] = tested on: Puccinia recondita; assay: Effect on Wheat brown rust (preventive spray test); type: in vivo; details: 7 days after inoculation
[2] = tested on: Psecidoperonospora cubensis; assay: Effect on Cucumber downy mildew (preventive spray test); type: in vivo; details: 7 days after inoculation
[3] = tested on: Rhizoctonia solani; assay: Effect on Rice sheath blight (preventive spray test); details: 10 days after inoculation
Protocol: An emulsion of a compound of the present invention prepared in Preparation Example 2 was diluted with water and uniformly sprayed on 5 rice plant seedlings (variety: Koshihikari) in 4.5-leaf stage in each plastic pot having a diameter of 6 cm, with a spray gun. One day after the spraying, the seedlings were bundled at the second sheath with a string. Colonies of Rhizoctonia solani previously cultured in PSA culture medium were bored with a cork borer to obtain pieces having a diameter of 4 mm. The piece was put in the bundle, and kept in a high-humidity room at 25° C. until the examination. Ten days after the inoculation, the degree of the disease was examined, and the preventive rate (effect of inhibiting the disease) was calculated on the basis of the following standard:
Preventive rate=[1-D′/C′]×100
C′: Severity in untreated section
D′: Severity in treated section.

[4] = tested on: Erysiphe graminis; assay: Effects on Barley powdery mildew (preventive spray test); type: in vivo; details: lesions counted seven days after inoculation
[5] = tested on: Pyricularia oryzae; type: in vivo; details: Rice blast, 7 days after inoculation
[6] = tested on: Botrytis cinerea; assay: Effect on Cucumber gray mold (cotyledon paper disc test); type: in vivo; details: 3 days after inoculation
[7] = tested on: Chochliobolus miyabeanus; assay: Effect on Rice brown spot (preventive spray test); type: in vivo; details: 7 days after inoculation
[8] = tested on: Phytophthora infestans; type: in vivo; details: Tomato late blight, 5 days after inoculation
[9] = conc. of active ingredient 4 ppm
[10] = conc. of active ingredient 20 ppm
[11] = conc. of active ingredient 100 ppm

Row | SMILES | Preventive rate (%) [1, 9] | Preventive rate (%) [1, 10] | Preventive rate (%) [1, 11] | Preventive rate (%) [2, 9] | Preventive rate (%) [2, 10] | Preventive rate (%) [2, 11] | Preventive rate (%) [3, 10] | Preventive rate (%) [3, 11] | Preventive rate (%) [4, 10] | Preventive rate (%) [4, 11] | Preventive rate (%) [5, 10] | Preventive rate (%) [5, 11] | Preventive rate (%) [4, 9] | Preventive rate (%) [6, 10] | Preventive rate (%) [6, 11] | Preventive rate (%) [8, 10] | Preventive rate (%) [8, 11] | further results
1 | CNC(=O)C(=NOC)c1ccccc1COc1ccc2c(c1C)OC(C)CC2=NOC (racemic) [d-11] | 100% | 100% | 100% | 93% | 96% | 100% | 75% | 96% | 99% | 99% | 78% | 95% |  |  |  |  |  | Preventive rate (%) [5, 9]: 68%
2 | CCON=C1COc2c1ccc(OCc1ccccc1/C(=N\OC)C(=O)OC)c2C [a-35] |  |  |  |  |  |  | 80% | 84% | 100% | 100% |  |  | 98% |  |  |  |  | 
3 | C#CCON=C1COc2c1ccc(OCc1ccccc1/C(=N\OC)C(=O)NC)c2C [a-71] | 100% | 100% | 100% | 100% | 100% | 100% |  |  | 100% | 100% | 89% | 91% |  | 100% | 100% |  |  | 
4 | CON=C(C(=O)OC)c1ccccc1COc1ccc2c(c1C)OCCC2=NOC [c-15] |  | 100% | 100% | 81% | 100% | 100% |  |  | 100% | 100% | 80% | 100% | 100% | 75% | 77% | 94% | 100% | Preventive rate (%) [7, 10]: 97%; Preventive rate (%) [7, 11]: 100%; Preventive rate (%) [8, 9]: 84%
5 | CNC(=O)C(=NOC)c1ccccc1COc1ccc2c(c1C)OCCC2=NOC [c-16] |  | 100% | 100% |  |  |  |  |  | 100% | 100% | 91% | 100% |  | 49% | 60% | 100% | 100% | Preventive rate (%) [8, 9]: 84%
6 | CNC(=O)C(=NOC)c1ccccc1COc1cc2c(cc1C)C(=NOC)CCO2 [c-27] | 96% | 100% | 100% | 86% | 93% | 96% | 93% | 94% | 100% | 100% | 95% | 100% | 100% |  |  | 98% | 100% | 
7 | CCc1c(OCc2ccccc2C(=NOC)C(=O)NC)ccc2c1OCCC2=NOC [c-30] | 100% | 100% | 100% |  |  |  | 56% | 98% | 100% | 100% | 100% | 100% | 95% |  |  |  |  | 
8 | CNC(=O)C(=NOC)c1ccccc1COc1ccc2c(c1C)OCCC2=NOCc1c(F)c(F)c(F)c(F)c1F [c-83] | 95% | 100% | 100% |  |  |  | 79% | 81% | 96% | 100% |  |  |  |  |  |  |  | 

Reference: patent publication US6399542B1, “Alkoxyimino-substituted bicyclic compounds compositions containing the same and method of making such compounds” (Agro-Kanesho Co., Ltd., priority 1997, dated 2002)
